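Following 48 hours of exposure in 96-well plates, responses at five concentrations were used to interpolate endpoints linearly. At the GI50, growth is halved. TGI: concentration producing complete growth inhibition.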
How the values were obtained:
Test in all cases: NCI-60 cell line screen, 48 h
U251 CNS = system: U251 CNS
SNB-75 CNS = system: SNB-75 CNS
RXF 393 renal = system: RXF 393 renal
IGROV1 ovarian = system: IGROV1 ovarian
SK-MEL-5 melanoma = system: SK-MEL-5 melanoma
A549 NSCLC = system: A549 NSCLC
NCI-H522 lung = system: NCI-H522 lung
HS 578T breast = system: HS 578T breast
UO-31 renal = system: UO-31 renal
M14 melanoma = system: M14 melanoma

Row | Compound | GI50 (U251 CNS) [nM] | TGI (U251 CNS) [nM] | GI50 (SNB-75 CNS) [nM] | TGI (SNB-75 CNS) [nM] | GI50 (RXF 393 renal) [nM] | TGI (RXF 393 renal) [nM] | GI50 (IGROV1 ovarian) [nM] | TGI (IGROV1 ovarian) [nM] | GI50 (SK-MEL-5 melanoma) [nM] | TGI (SK-MEL-5 melanoma) [nM] | GI50 (A549 NSCLC) [nM] | TGI (A549 NSCLC) [nM] | GI50 (NCI-H522 lung) [nM] | TGI (NCI-H522 lung) [nM] | GI50 (HS 578T breast) [nM] | TGI (HS 578T breast) [nM] | GI50 (UO-31 renal) [nM] | TGI (UO-31 renal) [nM] | GI50 (M14 melanoma) [nM] | TGI (M14 melanoma) [nM]
1 | Fc1ccc(-c2c(-c3ccncc3)[nH]c3cccnc23)cc1 | > 25000 | > 25000 | > 17800 | > 25000 | > 20400 | > 25000 | 8450 | > 25000 | 24300 | > 25000 | 17000 | > 25000 | > 19800 | > 25000 | > 25000 | > 25000 | 3200 | > 25000 | > 25000 | > 25000
2 | CN1CCN(C(=O)[C@@]2(C)CC[C@]3(C)CC[C@]4(C)C(=CC[C@@H]5[C@@]6(C)CC[C@H](OC(=O)c7cccnc7)C(C)(C)[C@@H]6CC[C@]54C)[C@@H]3C2)CC1 | 1570 | 2950 | 1320 | 2630 | 1660 | 3330 | 1930 | 3890 | 1650 | 3020 | 1710 | 3280 | 1950 | 4170 | 1450 | 3140 | 1430 | 2860 | 1620 | 3100
3 | CN(CCCCCCCCNc1ccnc2ccccc12)Cc1ccc(-c2ccc(-c3ccc(C#N)cc3)s2)cc1 | 248 | 842 | 1350 | 2680 | 1130 | 2540 | 1400 | 3020 | 890 | 2170 | 1010 | 2940 | 1350 | 3360 | 1750 | 3860 | 1230 | 2570 | 443 | 1560
4 | CCCCCCCCCCCCSC1=CC(=O)C=CC1=O | 311 | 4570 | 1140 | 6380 | 2860 | 19300 | 1060 | 3220 | 5540 | 14300 | 9460 | > 50000 | 191 | 763 | 1960 | 21800 | 578 | 2540 | 11700 | > 37100
